# Biological target: T1, Aromatase (Homo sapiens, UniProt P11511)
# T1 sequence (P11511 whole entry): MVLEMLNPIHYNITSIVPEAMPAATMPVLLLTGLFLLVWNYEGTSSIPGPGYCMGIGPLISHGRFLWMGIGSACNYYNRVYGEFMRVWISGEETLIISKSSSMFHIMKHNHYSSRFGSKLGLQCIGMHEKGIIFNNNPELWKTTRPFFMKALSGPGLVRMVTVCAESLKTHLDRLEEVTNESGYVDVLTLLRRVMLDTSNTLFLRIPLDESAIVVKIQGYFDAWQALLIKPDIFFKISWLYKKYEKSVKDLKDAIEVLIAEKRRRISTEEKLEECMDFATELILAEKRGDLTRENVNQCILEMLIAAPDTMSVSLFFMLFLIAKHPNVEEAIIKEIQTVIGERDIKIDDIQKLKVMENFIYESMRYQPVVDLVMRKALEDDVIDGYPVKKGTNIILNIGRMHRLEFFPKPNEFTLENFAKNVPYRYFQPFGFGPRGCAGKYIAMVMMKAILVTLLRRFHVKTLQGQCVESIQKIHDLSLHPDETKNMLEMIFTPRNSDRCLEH
row,Compound,IC50 [µM]
1,C[C@]12C=CC(=O)C=C1C=C[C@@H]1[C@@H]2CC[C@]2(C)C(=O)CC[C@@H]12,0.45
2,C[C@]12CCC(=O)C=C1C[C@@H](CCc1ccccc1)[C@@H]1[C@@H]2CC[C@]2(C)C(=O)CC[C@@H]12,0.138
3,C[C@]12CCC(=O)C=C1C[C@@H](Cc1ccccc1)[C@@H]1[C@@H]2CC[C@]2(C)C(=O)CC[C@@H]12,0.328
4,CCCCC1=C[C@@H]2[C@H](CC[C@]3(C)C(=O)CC[C@@H]23)[C@@]2(C)C=CC(=O)C=C12,0.25
5,C[C@]12C=CC(=O)C=C1C(CCc1ccccc1)=C[C@@H]1[C@@H]2CC[C@]2(C)C(=O)CC[C@@H]12,0.0729
6,C[C@]12CCC(=O)C=C1[C@@H](CCc1ccccc1)C[C@@H]1[C@@H]2CC[C@]2(C)C(=O)CC[C@@H]12,140
7,CCCCCCC1=C[C@@H]2[C@H](CC[C@]3(C)C(=O)CC[C@@H]23)[C@@]2(C)C=CC(=O)C=C12,0.155
8,CCCCCCCC1=C[C@@H]2[C@H](CC[C@]3(C)C(=O)CC[C@@H]23)[C@@]2(C)C=CC(=O)C=C12,0.23
9,C[C@]12CCC(=O)C=C1[C@@H](Cc1ccccc1)C[C@@H]1[C@@H]2CC[C@]2(C)C(=O)CC[C@@H]12,0.661
10,CCCC1=C[C@@H]2[C@H](CC[C@]3(C)C(=O)CC[C@@H]23)[C@@]2(C)CCC(=O)C=C12,0.315
11,C[C@]12CCC(=O)C=C1[C@H](CCCCc1ccccc1)C[C@@H]1[C@@H]2CC[C@]2(C)C(=O)CC[C@@H]12,135
12,CCCCCCC1=C[C@@H]2[C@H](CC[C@]3(C)C(=O)CC[C@@H]23)[C@@]2(C)CCC(=O)C=C12,0.2
13,CCCCC1=C[C@@H]2[C@H](CC[C@]3(C)C(=O)CC[C@@H]23)[C@@]2(C)CCC(=O)C=C12,0.265
14,CCCCCC1=C[C@@H]2[C@H](CC[C@]3(C)C(=O)CC[C@@H]23)[C@@]2(C)C=CC(=O)C=C12,0.14
15,CCC1=C[C@@H]2[C@H](CC[C@]3(C)C(=O)CC[C@@H]23)[C@@]2(C)CCC(=O)C=C12,0.39
16,CCCC[C@H]1C[C@@H]2[C@H](CC[C@]3(C)C(=O)CC[C@@H]23)[C@@]2(C)CCC(=O)C=C12,0.791
17,C[C@]12CCC(=O)C=C1C(CCc1ccccc1)=C[C@@H]1[C@@H]2CC[C@]2(C)C(=O)CC[C@@H]12,0.092
18,CCCC1=C[C@@H]2[C@H](CC[C@]3(C)C(=O)CC[C@@H]23)[C@@]2(C)C=CC(=O)C=C12,0.1
19,C[C@]12CCC(=O)C=C1C(Cc1ccccc1)=C[C@@H]1[C@@H]2CC[C@]2(C)C(=O)CC[C@@H]12,0.078
20,CCCCCCCC1=C[C@@H]2[C@H](CC[C@]3(C)C(=O)CC[C@@H]23)[C@@]2(C)CCC(=O)C=C12,0.43
21,CCC1=C[C@@H]2[C@H](CC[C@]3(C)C(=O)CC[C@@H]23)[C@@]2(C)C=CC(=O)C=C12,0.042
22,CCCCCC1=C[C@@H]2[C@H](CC[C@]3(C)C(=O)CC[C@@H]23)[C@@]2(C)CCC(=O)C=C12,0.22
23,C[C@]12CCC(=O)C=C1C(c1ccccc1)=C[C@@H]1[C@@H]2CC[C@]2(C)C(=O)CC[C@@H]12,0.2
24,C[C@]12CCC(=O)C=C1[C@H](CCc1ccccc1)C[C@@H]1[C@@H]2CC[C@]2(C)C(=O)CC[C@@H]12,1050
25,C[C@]12CCC(=O)C=C1C(CCCCCc1ccccc1)=C[C@@H]1[C@@H]2CC[C@]2(C)C(=O)CC[C@@H]12,0.3

row,Compound,IC50 [µM]
1,C[C@]12CCC(=O)C=C1[C@@H](CCCCc1ccccc1)C[C@@H]1[C@@H]2CC[C@]2(C)C(=O)CC[C@@H]12,340
2,C[C@]12C=CC(=O)C=C1C(Cc1ccccc1)=C[C@@H]1[C@@H]2CC[C@]2(C)C(=O)CC[C@@H]12,0.0929
3,C[C@]12C=CC(=O)C=C1C(CCCCc1ccccc1)=C[C@@H]1[C@@H]2CC[C@]2(C)C(=O)CC[C@@H]12,0.15
4,CC(C)[C@H]1C[C@@H]2[C@H](CC[C@]3(C)C(=O)CC[C@@H]23)[C@@]2(C)CCC(=O)C=C12,1.4
5,C[C@]12C=CC(=O)C=C1[C@@H](CCCCCc1ccccc1)C[C@@H]1[C@@H]2CC[C@]2(C)C(=O)CC[C@@H]12,0.33
6,CC[C@H]1C[C@@H]2[C@H](CC[C@]3(C)C(=O)CC[C@@H]23)[C@@]2(C)CCC(=O)C=C12,0.26
7,C[C@]12C=CC(=O)C=C1[C@@H](CCCc1ccccc1)C[C@@H]1[C@@H]2CC[C@]2(C)C(=O)CC[C@@H]12,0.511
8,C[C@]12C=CC(=O)C=C1C(CCCc1ccccc1)=C[C@@H]1[C@@H]2CC[C@]2(C)C(=O)CC[C@@H]12,0.35
9,C[C@]12CCC(=O)C=C1[C@@H](c1ccccc1)C[C@@H]1[C@@H]2CC[C@]2(C)C(=O)CC[C@@H]12,1.1
10,C[C@]12CCC(=O)C=C1[C@@H](CCCCCc1ccccc1)C[C@@H]1[C@@H]2CC[C@]2(C)C(=O)CC[C@@H]12,560
11,C[C@]12C=CC(=O)C=C1C[C@@H](CCc1cccc([N+](=O)[O-])c1)[C@@H]1[C@@H]2CC[C@]2(C)C(=O)CC[C@@H]12,0.133
12,C[C@]12C=CC(=O)C=C1[C@@H](Cc1ccccc1)C[C@@H]1[C@@H]2CC[C@]2(C)C(=O)CC[C@@H]12,0.27
13,C[C@]12C=CC(=O)C=C1[C@H](c1ccccc1)C[C@@H]1[C@@H]2CC[C@]2(C)C(=O)CC[C@@H]12,0.53
14,C[C@]12C=CC(=O)C=C1C[C@@H](CCCc1ccc(N)cc1)[C@@H]1[C@@H]2CC[C@]2(C)C(=O)CC[C@@H]12,0.158
15,C[C@]12CCC(=O)C=C1[C@@H](CCCc1ccccc1)C[C@@H]1[C@@H]2CC[C@]2(C)C(=O)CC[C@@H]12,400
16,CCC[C@H]1C[C@@H]2[C@H](CC[C@]3(C)C(=O)CC[C@@H]23)[C@@]2(C)CCC(=O)C=C12,0.39
17,C[C@]12C=CC(=O)C=C1C(c1ccccc1)=C[C@@H]1[C@@H]2CC[C@]2(C)C(=O)CC[C@@H]12,0.54
18,C[C@]12CCC(=O)C=C1[C@H](CCCCCc1ccccc1)C[C@@H]1[C@@H]2CC[C@]2(C)C(=O)CC[C@@H]12,450
19,C[C@]12C=CC(=O)C=C1[C@@H](CCCCc1ccccc1)C[C@@H]1[C@@H]2CC[C@]2(C)C(=O)CC[C@@H]12,0.23
20,C[C@]12CCC(=O)C=C1[C@H](CCCc1ccccc1)C[C@@H]1[C@@H]2CC[C@]2(C)C(=O)CC[C@@H]12,290
21,C[C@]12CCC(=O)C=C1C(CCCCc1ccccc1)=C[C@@H]1[C@@H]2CC[C@]2(C)C(=O)CC[C@@H]12,0.28
22,C[C@]12C=CC(=O)C=C1[C@@H](CCc1ccccc1)C[C@@H]1[C@@H]2CC[C@]2(C)C(=O)CC[C@@H]12,0.32
23,C[C@]12CCC(=O)C=C1C(CCCc1ccccc1)=C[C@@H]1[C@@H]2CC[C@]2(C)C(=O)CC[C@@H]12,0.25
24,C[C@]12C=CC(=O)C=C1[C@@H](c1ccccc1)C[C@@H]1[C@@H]2CC[C@]2(C)C(=O)CC[C@@H]12,0.681
25,C[C@]12C=CC(=O)C=C1C(CCCCCc1ccccc1)=C[C@@H]1[C@@H]2CC[C@]2(C)C(=O)CC[C@@H]12,0.1

# Reference: ChEMBL document CHEMBL5241054, “Effective anti-aromatase therapy to battle against estrogen-mediated breast cancer: Comparative SAR/QSAR assessment on steroidal aromatase inhibitors” (Eur J Med Chem, 2020)
